# Article PMC7531004, “Discovery of gramicidin A analogues with altered activities by multidimensional screening of a one-bead-one-compound library” (Nature Communications, 2020)
# Values joined by “and” are separate entries in the source; they are usually repeats but may differ in a detail not shown here. Equal entries are not always repeated. Where two headings read alike, the source gives them in different places. Where a SMILES comes first, the peptide text is derived from it. [ ]: non-standard residue; d: D form. The star is where a group is joined. NHCH2CH2OH = OCCN*; For = O=C*
# What was measured:
# [1] = Procedure: Second, we examined the cytotoxicity toward mammalian cancer cells and hemolytic activity of 1. […] Hemolytic activity was evaluated by monitoring hemoglobin leakage from rabbit red blood cells as a consequence of membrane damage. The concentration of 1 required to cause 10% hemoglobin leakage (HC10) was 160 nM. Thus, the P388 cytotoxicity of 1 was 28-fold more sensitive than its hemolytic activity.
# Mammalian cytotoxicity assay of purified peptides.
# B22 was diluted with the growth medium with 2% DMSO to various concentrations as 5-fold serial dilution.
# The collected cells were resuspended into
# the growth medium at 2 × 10^4 cells/mL. Aliquots of the former medium (2% DMSO, 100 µL) containing
# peptides and the latter medium containing P388 cells (100 µL) were mixed in a 96-well cell culture plate
# (TR5003, TrueLine). The final concentration of P388 cells and DMSO were 1 × 10^4 cells/mL and 1%,
# respectively. […]
# were determined by WST -1 assay. A solution of 1-methoxy PMS and WST-1 in the growth medium
# (1-methoxy PMS 0.70 mg/mL in Milli-Q/WST-1 3.6 mg/mL in pH 7.4 HEPES buffer = 1/9) was added to
# each well of the plate (20.0 µL/well). The cells were incubated for 4 h under atmosphere of 5% CO 2 at
# 37 °C. The absorbance of each well at 415 nm was measured using a Benchmark microplate reader
# (Bio-Rad) or Thermo Scientifi c Multiskan GO (Thermo Fisher Scientific). The cytotoxicities of the purified
# peptides were evaluated as IC 50 (nM) by means of three replicates. Sigmoidal curve fittings were performed
# [2] = H+/Na+ transport assay of purified peptides; settings: for Supplementary Figure 5 dose-response value (H+/Na+ transport): three replicate lines
# Protocol: First, we evaluated the ion channel function of 1 using liposomes. To mimic a negatively charged Gram-positive bacterial membrane, the liposomes were prepared as large unilamellar vesicles (LUVs) comprising a 19:1 mixture of egg yolk phosphatidylcholine (EYPC) and egg yolk phosphatidylglycerol (EYPG)[57]. Pyranine, a pH-dependent fluorescent dye[58], was encapsulated in the LUVs and a pH gradient was applied across the membrane. H^+/Na^+ transport induced by a peptide was monitored by changes in the fluorescence intensity of pyranine.
# [3] = IC50, mammalian cytotoxicity assay
# [4] = cytotoxicity against P388 cells/IC50
# [5] = read-out: EC50, H+/Na+ transport assay, 1st experiment
# [6] = read-out: EC50, H+/Na+ transport assay, 2nd experiment
# [7] = read-out: EC50, H+/Na+ transport assay, 3rd experiment
# [8] = read-out: H+/Na+ transport activity EC50, EYPC/EYPG (19:1) LUVs
# [9] = read-out: H+/Na+ transport activity/EC50, mean ± SD of three independent experiments
SMILES,IC50 ([1]; Cytotoxicity IC50) [nM],"IC50 [1, 3] [nM]","IC50 [1, 4] [nM]",Supplementary Figure 5 dose-response value (H+/Na+ transport) ([2]; concentration 0.000512 nM),Supplementary Figure 5 dose-response value (H+/Na+ transport) ([2]; concentration 0.00256 nM),Supplementary Figure 5 dose-response value (H+/Na+ transport) ([2]; concentration 0.0128 nM),Supplementary Figure 5 dose-response value (H+/Na+ transport) ([2]; concentration 0.064 nM),Supplementary Figure 5 dose-response value (H+/Na+ transport) ([2]; concentration 0.32 nM),Supplementary Figure 5 dose-response value (H+/Na+ transport) ([2]; concentration 1.6 nM),Supplementary Figure 5 dose-response value (H+/Na+ transport) ([2]; concentration 8 nM),Supplementary Figure 5 dose-response value (H+/Na+ transport) ([2]; concentration 40 nM),Supplementary Figure 5 dose-response value (H+/Na+ transport) ([2]; concentration 200 nM),Supplementary Figure 5 dose-response value (H+/Na+ transport) ([2]; concentration 1000 nM),Supplementary Figure 5 dose-response value (H+/Na+ transport) ([2]; concentration 5000 nM),"EC50 [2, 5] [nM]","EC50 [2, 6] [nM]","EC50 [2, 7] [nM]","EC50 [2, 8] [nM]","EC50 [2, 9] [nM]"
CC(C)C[C@@H](NC(=O)[C@H](C)NC(=O)CNC(=O)[C@@H](NC=O)C(C)C)C(=O)N[C@@H](C)C(=O)N[C@@H](C(=O)N[C@H](C(=O)N[C@@H](C(=O)N[C@@H](Cc1c[nH]c2ccccc12)C(=O)N[C@@H](C(=O)N[C@@H](Cc1c[nH]c2ccccc12)C(=O)N[C@@H](C(=O)N[C@@H](Cc1c[nH]c2ccccc12)C(=O)N[C@@H](C(=O)N[C@@H](Cc1c[nH]c2ccccc12)C(=O)NCCO)C(C)C)C(C)C)C(C)C)C(C)C)C(C)C)C(C)C [B03] (For-VGA[dL]A[dV]V[dV]W[dV]W[dV]W[dV]W-NHCH2CH2OH),38,35.9,37.6 ± 1.56,3.426 and 4.542 and 4.454,4.063 and 4.369 and 6.1349,8.086 and 3.88 and 7.199,11.12 and 10.2864 and 11.0165,19.1274 and 20.4439 and 18.4811,44.4719 and 42.2282 and 45.2028,70.1046 and 68.0194 and 61.5034,68.5122 and 68.0449 and 67.6654,74.8622 and 71.9344 and 68.9589,72.6177 and 71.4474 and 69.5798,79.6141 and 83.2523 and 73.0858,1.77,1.01,1.18,1.3,1.32 ± 0.4
CC(C)C[C@@H](NC(=O)[C@H](C)NC(=O)[C@H](NC(=O)[C@H](C)NC(=O)CNC(=O)[C@@H](NC=O)C(C)C)C(C)C)C(=O)N[C@H](C(=O)N[C@@H](C(=O)N[C@@H](Cc1c[nH]c2ccccc12)C(=O)N[C@@H](C(=O)N[C@@H](Cc1c[nH]c2ccccc12)C(=O)N[C@H](CC(C)C)C(=O)N[C@@H](Cc1c[nH]c2ccccc12)C(=O)N[C@H](CC(C)C)C(=O)N[C@@H](Cc1c[nH]c2ccccc12)C(=O)NCCO)C(C)C)C(C)C)C(C)C [B02] (For-VGA[dV]A[dL]V[dV]W[dV]W[dL]W[dL]W-NHCH2CH2OH),17,18.7,16.8 ± 2.82,0.2643 and 0.7827 and 0.1241,2.146 and 0.0547 and 1.671,4.163 and 0.6112 and 1.64,7.246 and 2.883 and 3.652,11.0985 and 10.392 and 10.3413,29.1914 and 27.2825 and 29.9486,56.3118 and 49.6431 and 51.0872,73.3306 and 69.0608 and 69.1921,73.6961 and 72.6071 and 72.9778,75.3536 and 79.2012 and 75.9728,75.4417 and 72.7674 and 77.9824,3.08,1.68,5.38,3.4,3.38 ± 1.87
CC(C)C[C@@H](NC(=O)[C@H](C)NC(=O)CNC(=O)[C@@H](NC=O)C(C)C)C(=O)N[C@@H](C)C(=O)N[C@H](CC(C)C)C(=O)N[C@H](C(=O)N[C@H](CC(C)C)C(=O)N[C@@H](Cc1c[nH]c2ccccc12)C(=O)N[C@H](CC(C)C)C(=O)N[C@@H](Cc1c[nH]c2ccccc12)C(=O)N[C@@H](C(=O)N[C@@H](Cc1c[nH]c2ccccc12)C(=O)N[C@@H](C(=O)N[C@@H](Cc1c[nH]c2ccccc12)C(=O)NCCO)C(C)C)[C@H](C)O)C(C)C [B11] (For-VGA[dL]A[dL]V[dL]W[dL]W[dT]W[dV]W-NHCH2CH2OH),–,289,250 ± 57.7,2.871 and 2.386 and 5.02,3.181 and 2.224 and 1.333,4.586 and 1.99 and 1.993,7.716 and 4.162 and 7.014,12.4442 and 13.4783 and 13.1353,25.1993 and 24.5125 and 22.5261,38.4333 and 37.5732 and 33.164,66.9626 and 64.2822 and 61.6393,70.7655 and 66.8425 and 69.2783,70.5972 and 73.9169 and 73.5278,72.3937 and 72.1348 and 73.2071,6.44,2.58,7.92,5.7,5.65 ± 2.76
CC(C)C[C@@H](NC(=O)[C@H](C)NC(=O)CNC(=O)[C@@H](NC=O)C(C)C)C(=O)N[C@@H](C)C(=O)N[C@@H](C(=O)N[C@H](C(=O)N[C@@H](C(=O)N[C@@H](Cc1c[nH]c2ccccc12)C(=O)N[C@@H](C(=O)N[C@@H](Cc1c[nH]c2ccccc12)C(=O)N[C@H](CC(C)C)C(=O)N[C@@H](Cc1c[nH]c2ccccc12)C(=O)N[C@@H](C(=O)N[C@@H](Cc1c[nH]c2ccccc12)C(=O)NCCO)C(C)C)C(C)C)C(C)C)C(C)C)C(C)C [B04] (For-VGA[dL]A[dV]V[dV]W[dV]W[dL]W[dV]W-NHCH2CH2OH),41,34.3,40.6 ± 5.95,-0.2346 and 0.9427 and 1.027,1.3317 and 0.8542 and 1.548,-1.2605 and 2.862 and -0.09432,5.945 and 3.111 and 2.028,10.5694 and 12.3828 and 8.56,26.4566 and 23.815 and 22.5252,54.4909 and 53.2036 and 54.0987,70.9935 and 73.4781 and 68.8062,73.8391 and 72.9169 and 76.5429,75.0683 and 78.833 and 77.3632,78.0479 and 76.1013 and 78.9016,3.43,3.5,4.18,3.7,3.71 ± 0.42
CC(C)C[C@@H](NC(=O)[C@H](Cc1c[nH]c2ccccc12)NC(=O)[C@H](NC(=O)[C@@H](NC(=O)[C@H](NC(=O)[C@H](C)NC(=O)[C@H](NC(=O)[C@H](C)NC(=O)CNC(=O)[C@@H](NC=O)C(C)C)C(C)C)C(C)C)C(C)C)C(C)C)C(=O)N[C@@H](Cc1c[nH]c2ccccc12)C(=O)N[C@@H](C(=O)N[C@@H](Cc1c[nH]c2ccccc12)C(=O)N[C@@H](C(=O)N[C@@H](Cc1c[nH]c2ccccc12)C(=O)NCCO)C(C)C)C(C)C [B01] (For-VGA[dV]A[dV]V[dV]W[dL]W[dV]W[dV]W-NHCH2CH2OH),17,–,17.5 ± 12,1.909 and 4.796 and 3.187,2.582 and 3.582 and 5.168,3.806 and 6.172 and 6.274,6.1 and 7.567 and 7.349,11.2834 and 14.5673 and 12.3484,32.2794 and 31.2161 and 30.2392,59.2885 and 57.8145 and 59.5121,71.8328 and 71.2991 and 68.3245,69.4784 and 69.9514 and 71.5477,71.9268 and 73.661 and 73.9278,81.6644 and 79.4929 and 76.8567,2.67,1.67,2.49,2.3,2.28 ± 0.54
